This is an account of results in patent US20160346249A1 (priority 2012, published 2016).

Data set [1] is described as follows: NADPH dependent metabolism, rat liver microsomes. Format: in vitro ADME. Conditions: RLM, from EB-1010 10 μM. On the procedure:
Bicifadine (10 μM) was used as the positive control and the formation of the lactam metabolites of bicifadine (M-12) was monitored.

For a further data set, the target named is T1, human recombinant MAO-A (Homo sapiens, UniProt P21397).
T1 construct: purchased BD Biosciences, Woburn, Mass
T1 sequence (P21397 1-527): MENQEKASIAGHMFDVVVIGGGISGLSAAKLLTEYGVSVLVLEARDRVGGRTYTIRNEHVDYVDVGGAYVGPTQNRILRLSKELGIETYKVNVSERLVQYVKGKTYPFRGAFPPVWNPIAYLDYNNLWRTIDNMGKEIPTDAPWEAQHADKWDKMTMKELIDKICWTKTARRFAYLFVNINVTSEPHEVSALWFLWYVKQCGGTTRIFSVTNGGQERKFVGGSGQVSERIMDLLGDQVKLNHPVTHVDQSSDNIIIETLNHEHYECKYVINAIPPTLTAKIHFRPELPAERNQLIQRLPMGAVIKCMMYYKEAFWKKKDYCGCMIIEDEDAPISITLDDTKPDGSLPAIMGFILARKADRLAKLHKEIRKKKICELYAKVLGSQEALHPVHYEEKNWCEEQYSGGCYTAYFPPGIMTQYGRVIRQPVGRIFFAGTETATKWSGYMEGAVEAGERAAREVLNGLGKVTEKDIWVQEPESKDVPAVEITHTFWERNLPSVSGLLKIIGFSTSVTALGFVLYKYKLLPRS
The data set is described as follows: Metabolism by recombinant MAO-A. Format: in vitro ADME. Here is the method: Incubation systems (ca. 0.2 mL) of human recombinant MAO-A (1.0 mg/mL) and MAO-B (1.0 mg/mL) (BD Biosciences, Woburn, Mass.) were prepared in triplicated 0.1 M potassium phosphate buffer (pH 7.4) (BD Biosciences, Woburn, Mass.). […] The negative samples were prepared as described above, with the exception that instead of HLM, HLmito, or recombinant enzymes, water was added to the incubation mixture.

Each structure is given as a SMILES string. Marks after values point to notes of the source that are not given here.

As for `O=C1NCC2(c3ccc(Cl)c(Cl)c3)CC12` (stereo not drawn) [EB-10101, 5-(3,4-dichloro-phenyl)-3-aza-bicyclo[3.1.0]hexan-2-one], the “amount formed with NADPH vs without NADPH” value in data set [1] was around 5 fold. In addition, the “MAO-A mediation of formation” value on human recombinant MAO-A (human recombinant MAO-A) is reported as “MAO-A mediated”. The “EB-10101 formation rate (mean ± SD)” value on human recombinant MAO-A (recombinant MAO-A 1 mg/mL, EB-1010 1 μM, 30 min, underestimated (substrate limited)) is 7.0 ± 2.7^b pmol/min/mg protein.
